From ChEMBL document CHEMBL6078704, “Redesigning Berberines and Sanguinarines to Target Soluble Epoxide Hydrolase for Enhanced Anti-Inflammatory Efficacy” (J Med Chem, 2024)
Active and inactive are the calls of the source. The rule behind the calls is not given here.

What was measured:
[1] = Clearance in Sprague-Dawley rat at 5 mg/kg, iv measured up to 24 hrs; assay type: ADME, organism-based; settings: in vivo
[2] = Half life in Sprague-Dawley rat at 20 mg/kg, po measured up to 24 hrs; assay type: ADME, organism-based; settings: in vivo
Mus musculus [3] = assay: (§1) Anti-inflammatory activity in cerulein-induced acute pancreatitis in CD1 mouse model assessed as decrease in plasma IL-6 level at 20 mg/kg, ip administered 30 and 150 mins post-cerulein treatment measured after 6 hrs post-cerulein treatment by ELISA; assay type: functional, organism-based
Mus musculus [4] = assay: Antiinflammatory activity against cerulein-induced acute pancreatitis in CD1 mouse assessed as increase in plasma 8,9-EET/DHET ratio at 20 mg/kg, ip pretreated with cerulein followed by compound injection on 30 and 150 mins and measured 6 hrs post cerulein treatment relative to model group; assay type: functional; settings: time 30-360 min
[5] = Volume of distribution (Vz) in Sprague-Dawley rat at 5 mg/kg, iv measured up to 24 hrs; assay type: ADME, organism-based; settings: in vivo, read-out: Vz
[6] = Oral bioavailability in Sprague-Dawley rat at 20 mg/kg measured up to 24 hrs; assay type: ADME, organism-based; settings: in vivo
HepG2 = assay: Cytotoxicity against human HepG2 cells assessed as cell viability at 0.5 to 5 uM measured after 48 hrs by CCK-8 assay; assay type: toxicity, cell-based; settings: hepg2, 48 h, dose 0.5-5 µM
Mus musculus [7] = assay: Antiinflammatory activity against cerulein-induced acute pancreatitis in CD1 mouse assessed as increase in pancreatic 8,9-EET/DHET ratio at 20 mg/kg, ip pretreated with cerulein followed by compound injection on 30 and 150 mins and measured 6 hrs post cerulein treatment relative to model group; assay type: functional; settings: time 30-360 min
[8] = Acute toxicity in BALB/c mouse assessed as pathological changes in kidney tissue by measuring inflammation at 100 mg/kg, po single dose measured for 24 hrs; assay type: organism-based; settings: in vivo
[9] = Acute toxicity in male BALB/c mouse assessed as physiological changes at 100 mg/kg, po single dose measured for 24 hrs; assay type: organism-based; settings: in vivo
[10] = Acute toxicity in BALB/c mouse assessed as pathological changes in kidney tissue by measuring hemorrhage at 100 mg/kg, po single dose measured for 24 hrs; assay type: organism-based; settings: in vivo
[11] = AUC (0 to infinity) in Sprague-Dawley rat at 20 mg/kg, po measured up to 24 hrs; assay type: ADME, organism-based; settings: in vivo
Mus musculus [12] = assay: Antiinflammatory activity against cerulein-induced acute pancreatitis in CD1 mouse assessed as increase in pancreatic 14,15-EET/DHET ratio at 20 mg/kg, ip pretreated with cerulein followed by compound injection on 30 and 150 mins and measured 6 hrs post cerulein treatment relative to model group; assay type: functional; settings: time 30-360 min
Mus musculus [13] = assay: Antiinflammatory activity against cerulein-induced acute pancreatitis in CD1 mouse assessed as increase in plasma 14,15-EET/DHET ratio at 20 mg/kg, ip pretreated with cerulein followed by compound injection on 30 and 150 mins and measured 6 hrs post cerulein treatment relative to model group; assay type: functional; settings: time 30-360 min
HEK-293T = assay: Cytotoxicity against human 293T cells assessed as cell viability at 0.5 to 5 uM measured after 48 hrs by CCK-8 assay; assay type: toxicity, cell-based; settings: dose 0.5-5 µM
[14] = AUC (0 to infinity) in Sprague-Dawley rat at 5 mg/kg, iv measured up to 24 hrs; assay type: ADME, organism-based; settings: in vivo
[15] = Cmax in Sprague-Dawley rat at 5 mg/kg, iv measured up to 24 hrs; assay type: ADME, organism-based; settings: in vivo
Staphylococcus aureus [16] = assay: Antimicrobial activity against Staphylococcus aureus ATCC 29213 by microbroth dilution method; assay type: functional
[17] = Cmax in Sprague-Dawley rat at 20 mg/kg, po measured up to 24 hrs; assay type: ADME, organism-based; settings: in vivo
[18] = AUC (0 to 24 hrs) in Sprague-Dawley rat at 20 mg/kg, po measured up to 24 hrs; assay type: ADME, organism-based; settings: in vivo
[19] = AUC (0 to 24 hrs) in Sprague-Dawley rat at 5 mg/kg, iv measured up to 24 hrs; assay type: ADME, organism-based; settings: in vivo
[20] = Acute toxicity in BALB/c mouse assessed as pathological changes in liver tissue by measuring necrosis at 100 mg/kg, po single dose measured for 24 hrs; assay type: organism-based; settings: in vivo
[21] = Half life in Sprague-Dawley rat at 5 mg/kg, iv measured up to 24 hrs; assay type: ADME, organism-based; settings: in vivo
Mus musculus [22] = assay: as §1, with “cerulein-induced pancreatitis by measuring pancreatic histopathology” for “plasma IL-6 level”, “H and E staining based analysis” for “ELISA”; assay type: functional, organism-based; settings: time 30-360 min
Mus musculus [23] = assay: Anti-inflammatory activity in carrageen-induced paw edema BALB/c mouse model assessed as inhibition of soft tissue edema and inflammation measured immediately at 20 mg/kg, po measured at 3 hrs; assay type: functional
Mus musculus [24] = assay: Anti-inflammatory activity in cerulein-induced acute pancreatitis in CD1 mouse model assessed as decrease in plasma TNFalpha level at 20 mg/kg, ip administered 30 and 150 mins post-cerulein treatment measured after 6 hrs post-cerulein treatment by ELISA; assay type: functional, organism-based
[25] = Acute toxicity in BALB/c mouse assessed as pathological changes in kidney tissue by measuring necrosis at 100 mg/kg, po single dose measured for 24 hrs; assay type: organism-based; settings: in vivo
[26] = Clearance in Sprague-Dawley rat at 20 mg/kg, po measured up to 24 hrs; assay type: ADME, organism-based; settings: in vivo
[27] = Volume of distribution (Vz) in Sprague-Dawley rat at 20 mg/kg, po measured up to 24 hrs; assay type: ADME, organism-based; settings: in vivo
[28] = Acute toxicity in BALB/c mouse assessed as pathological changes in liver tissue by measuring inflammation at 100 mg/kg, po single dose measured for 24 hrs; assay type: organism-based; settings: in vivo
[29] = Acute toxicity in female BALB/c mouse assessed as physiological changes at 100 mg/kg, po single dose measured for 24 hrs; assay type: organism-based; settings: in vivo
Mus musculus [30] = assay: In vivo inhibition sEH activity in cerulein-induced acute pancreatitis in CD1 mouse model assessed as enzyme activity in pancreatic homogenate at 20 mg/kg, ip administered 30 and 150 mins post-cerulein treatment measured after 6 hrs post-cerulein treatment; assay type: functional, organism-based; settings: time 30-360 min
[31] = Tmax in Sprague-Dawley rat at 20 mg/kg, po measured up to 24 hrs; assay type: ADME, organism-based; settings: in vivo
[32] = Tmax in Sprague-Dawley rat at 5 mg/kg, iv measured up to 24 hrs; assay type: ADME, organism-based; settings: in vivo
Staphylococcus aureus [33] = assay: Antimicrobial activity against methicillin-resistant Staphylococcus aureus 19B120 by microbroth dilution method; assay type: functional
[34] = Acute toxicity in BALB/c mouse assessed as pathological changes in liver tissue by measuring hemorrhage at 100 mg/kg, po single dose measured for 24 hrs; assay type: organism-based; settings: in vivo

Q: With `COc1cc2c(cc1OC)[C@H]1Cc3ccc(NC(=O)NCc4ccc(OC(F)(F)F)cc4)cc3CN1CC2` as the compound, how does the clearance [1] read?
A: 2.85 mL/min/kg

Q: What about the half-life [2] of the same compound?
A: 7.2 h

Q: And the Activity (Mus musculus [3])?
A: Active

Q: And the “fold change (FC)” value (Mus musculus [4])?
A: 3.8

Q: And the Vd [5]?
A: 1.49 L/kg

Q: And the bioavailability [6]?
A: 89.3%

Q: And the Activity (HepG2)?
A: Non-toxic

Q: What about the “fold change (FC)” value (Mus musculus [7]) of the same compound?
A: 5.4

Q: And the Activity [8]?
A: Non-toxic

Q: And the Activity [9]?
A: Non-toxic

Q: What about the Activity [10] of the same compound?
A: Non-toxic

Q: And the AUC(0-inf) [11]?
A: 110000 ng·h/mL

Q: And the “fold change (FC)” value (Mus musculus [12])?
A: 26

Q: What about the “fold change (FC)” value (Mus musculus [13]) of the same compound?
A: 15.4

Q: And the Activity (HEK-293T)?
A: Non-toxic

Q: What about the AUC(0-inf) [14] of the same compound?
A: 29600 ng·h/mL

Q: And the Cmax [15]?
A: 4860 ng/mL

Q: What about the MIC (Staphylococcus aureus [16]) of the same compound?
A: > 64 µg/mL

Q: And the Cmax [17]?
A: 10300 ng/mL

Q: What about the AUC(0-t) at 24 h [18] of the same compound?
A: 99500 ng·h/mL

Q: What about the AUC(0-t) at 24 h [19] of the same compound?
A: 27800 ng·h/mL

Q: And the Activity [20]?
A: Non-toxic

Q: What about the half-life [21] of the same compound?
A: 6.1 h

Q: What about the Activity (Mus musculus [22]) of the same compound?
A: Active

Q: What about the inhibition in vivo at 20 mg/kg (Mus musculus [23]) of the same compound?
A: 33%

Q: What about the Activity (Mus musculus [24]) of the same compound?
A: Active

Q: What about the Activity [25] of the same compound?
A: Non-toxic

Q: What about the CL/F [26] of the same compound?
A: 3.03 mL/min/kg

Q: What about the Vz [27] of the same compound?
A: 1.889 L/kg

Q: And the Activity [28]?
A: Non-toxic

Q: What about the Activity [29] of the same compound?
A: Non-toxic

Q: And the Activity (Mus musculus [30])?
A: Active

Q: What about the Tmax [31] of the same compound?
A: 1.67 h

Q: What about the Tmax [32] of the same compound?
A: 4.8 min

Q: And the MIC (Staphylococcus aureus [33])?
A: > 64 µg/mL

Q: And the Activity [34]?
A: Non-toxic
